From ChEMBL document CHEMBL1149902, “Steroidal triglycosides, kurilensosides A, B, and C, and other polar steroids from the Far Eastern starfish Hippasteria kurilensis” (2008) come the findings set out here.

Holding throughout (type): functional
Assay [1] deals with Mesocentrotus nudus. The assay is described as follows: Inhibition of Strongylocentrotus nudus egg fertilization by Strongylocentrotus nudus sperm at 55 uM.
In assay [2] the test system is Mesocentrotus nudus. Put plainly: Inhibition of Strongylocentrotus nudus egg fertilization by Strongylocentrotus nudus sperm.
Assay [3] deals with Mesocentrotus nudus. Put plainly: Inhibition of Strongylocentrotus nudus egg fertilization by Strongylocentrotus nudus sperm at 13 uM.
Assay [4] has as its system Mesocentrotus nudus. The assay is described as follows: Inhibition of Strongylocentrotus nudus egg fertilization by Strongylocentrotus nudus sperm at 67 uM.

The term inhibition denotes the drop in the measured response relative to a control, in per cent. Lower therefore signals a weak effect. In the case of `CO[C@H]1[C@H](OC[C@@H]2O[C@@H](O[C@@H](CC[C@@H](C)[C@H]3C[C@@H](O)[C@@H]4[C@]3(C)CC[C@H]3[C@@]4(O)[C@H](O)[C@H](O)C4[C@@H](O)[C@@H](O[C@@H]5OC[C@@H](O)[C@H](O)[C@H]5OC)CC[C@@]43C)C(C)C)[C@H](O)[C@H]2O)OC[C@@H](O)[C@@H]1O` (stereo partly specified) [KURILENSOSIDE C], the inhibition at 55 µM in the assay with Mesocentrotus nudus [1] stood at 100%.

The molecule `CO[C@H]1[C@H](O[C@H]2CC[C@@]3(C)C([C@H](O)C[C@@]4(O)[C@@H]5[C@@H](O)C[C@H]([C@H](C)CC[C@H](O[C@@H]6O[C@@H](CO)[C@H](OS(=O)(=O)[O-])[C@H]6O[C@@H]6O[C@@H](CO)[C@H](O)[C@H]6O)C(C)C)[C@@]5(C)CC[C@@H]43)[C@H]2O)OC[C@@H](O)[C@@H]1O.[Na+]` (stereo partly specified) [KURILENSOSIDE A] registered an EC100 with Mesocentrotus nudus [2] of 8.9 ×10⁻⁵ M.

As for `CC(C)[C@@H](O)CC[C@@H](C)[C@H]1C[C@H](O)[C@@H]2[C@]1(C)CC[C@H]1[C@@]2(O)C[C@@H](O)C2[C@@H](O)[C@@H](O)CC[C@@]21C` (stereo partly specified), the inhibition at 13 µM with Mesocentrotus nudus [3] came out at 100%.

`CC(C)[C@@H](O)/C=C/[C@@H](C)[C@H]1C[C@@H](O)C2[C@@]3(O)C(CC[C@@]21C)[C@@]1(C)CC[C@H](O)[C@H](O)C1[C@@H](OS(=O)(=O)[O-])[C@H]3O.[Na+]` (stereo partly specified): in the assay on Mesocentrotus nudus [2], the EC100 was 11 ×10⁻⁵ M.

In the assay on Mesocentrotus nudus [4], `CO[C@H]1[C@H](OC[C@@H]2O[C@@H](O[C@@H](CC[C@@H](C)[C@H]3C[C@@H](O)[C@@H]4[C@]3(C)CC[C@H]3[C@@]4(O)C[C@H](O)C4[C@@H](O)[C@@H](O)CC[C@@]43C)C(C)C)[C@H](O)[C@H]2O)OC[C@@H](O)[C@@H]1O` (stereo partly specified) [KURILENSOSIDE D] had an inhibition at 67 µM of 100%.

Consider `CO[C@H]1[C@H](O[C@H]2CC[C@@]3(C)C([C@H]2O)[C@@H](O)[C@@H](O)[C@@]2(O)[C@@H]4[C@H](O)C[C@H]([C@H](C)CC[C@H](O[C@@H]5O[C@@H](CO[C@H]6OC[C@H](O)[C@@H](O)[C@@H]6O)[C@H](O)[C@H]5O)C(C)C)[C@@]4(C)CC[C@@H]23)OC[C@@H](OC)[C@@H]1O` (stereo partly specified) [KURILENSOSIDE B], for which the inhibition at 55 µM in the assay with Mesocentrotus nudus [1] was found to be 100%.
